Measured values as given in article PMC10630452, “The tumor-enriched small molecule gambogic amide suppresses glioma by targeting WDR1-dependent cytoskeleton remodeling” (Signal Transduction and Targeted Therapy, 2023).

Legend:
GSC2 and U87MG-SLC cells = assay: Combination of GA-amide with Trk inhibitors, cell viability; assay type: cell-based; details: 48 hours
Description: Supplementary Fig. 5 TrkA was not the functional target for GA-amide to inhibit glioma. a Western blot analyses of the TrkA and p-TrkA expression in GSC2 and U87MG-SLC cells with GA-amide treatment for 4 hours. b Western blot analyses of the p-TrkA expression in GSC2 with GA-amide treatment for different times. c, d The combination effects of GA-amide with GW441756, a TrkA inhibitor, or with K252a, an inhibitor of Trk family in GSC2 (c) and U87MG-SLC (d) (48 hours, n = 3).

F-actin = F-actin staining and G-actin/F-actin assay in T2-4 cells; assay type: cell-based; details: 50 nM jas with 0.3 μM GA-amide
Description: F-actin isolation was performed according to the instructions of the G-actin/F-actin assay (Cytoskeleton, Inc.). Briefly, cells were lysed in LAS2 buffer (Cytoskeleton, Inc.). The lysates were centrifuged (5 min at 1000 rpm) to pellet undisrupted cells, and then 100 µl of the supernatant was ultracentrifuged at 37 °C (100,000 × g) for 1 h to separate F-actin from soluble G-actin. The F-actin pellet was solubilized by incubation in 100 μL of F-actin depolymerization buffer for 1 h. The soluble F-actin and G-actin fractions were subsequently analyzed by immunoblotting with a mouse monoclonal anti-actin antibody (Cytoskeleton, Inc.).
Representative images of three wells are shown, and the scale bar represents 500 μm. h The apoptosis assay was conducted on T2-4 cells treated with DMSO, GA-amide (0.3 μM), jas (50 nM), and jas (50 nM jas was pretreated for 12 hours) in combination with GA-amide (0.3 μM) for 4 hours. The data were presented as the mean ± SEM (n = 3) and analyzed using one-way ANOVA analysis. Statistical significance is denoted as *P <0.05, **P <0.01, and ***P <0.001.

subcutaneous glioma PDX = assay: Subcutaneous PDX model of glioma (GBM1); assay type: in vivo, nude mice
Description: (§1) Fig. 2 The BBB permeability and tumor suppressor ability of GA-amide compared with TMZ. GA-amide (a) or TMZ (b) concentration in the tumor area and normal brain tissue following a single injection of GA-amide (10 mg/kg, i.v.) or TMZ (10 mg/kg, i.v.). The data are presented as the means ± SEMs (n = 3). c Western blot analysis of the expression of TrkA in mouse tumor tissues (T) and normal brain tissues (N), n = 4. d Western blot analysis of glycosylated TrkA expression in human normal brain tissues (N) and glioma tissues of different grades. e Time curve of GA-amide and TMZ treatment in a cell viability assay (MTS) in T2-4, GSC2 and T12-1 cells. f–h A PDX mouse model was established, and the mice were treated with vehicle (control, n = 9), 2 mg/kg GA-amide (n = 9), 2 mg/kg GAC (n = 9) or […] TMZ (n = 8) by i.p. injection daily for 10 days. A summary photograph is presented in (f), statistical results in (g) and the body weights of mice in (h); the mean ± SEMs are shown. n.s: P ≥ 0.05, *P < 0.05, **P < 0.01 and ***P < 0.001 compared with the control group by one-way ANOVA at each time point
Male nude mice aged 5–6 weeks were selected for establishment of the in vivo glioma mouse models. For the PDX models, the tumor sample will be soaked in HBSS solution on ice and transferred from the hospital to the laboratory. Patient-related information was shown in Supplementary Table 4). For the subcutaneous PDX models, the isometric fresh GBM tumor (GBM1) specimens were implanted s.c. into the flank of a nude mouse. Then, the mice were treated with GA-amide (2 mg/kg i.p.), gambogic acid (2 mg/kg i.p.), TMZ (65 mg/kg i.p., Selleck) or vehicle after the tumors grew to 100 mm^3. The mouse body weights were measured, and tumor volumes were calculated using the formula L × W^2/2. After treatment, the xenografts were harvested and photographed.

[1] = BBB permeability assay in U87MG-SLC intracranial xenograft mice; assay type: in vivo, mouse; details: 10 mg/kg i.v., U87MG-SLC intracranial xenograft mice
Description: as §1
Mice bearing U87MG-SLC cell intracranial xenografts were injected with GA-amide (i.v.), and tissues from the brain tumor area and normal brain tissues were collected at different times after injection. […] The diagnostic product ions for GA-amide were detected at m/z 628.3/572.2.

[2] = 60 mg/kg i.p. daily for 10 days

In the case of `Cn1cc(/C=C2\C(=O)Nc3cccnc32)c2ccccc21` [GW441756], the “rescue of the inhibitory effect of GA-amide on GSCs” value (GSC2 and U87MG-SLC cells) is reported as “neither the TrkA inhibitor GW441756 nor the Trk family inhibitor K252a[28] restored the inhibitory effect of GA-amide on GSCs”.

With `C/C1=C\[C@H](C)C[C@H](C)OC(=O)C[C@H](c2ccc(O)cc2)NC(=O)[C@@H](Cc2c(Br)[nH]c3ccccc23)N(C)C(=O)[C@H](C)NC(=O)[C@@H](C)C1` [jasplakinolide, reference compound] the “effect of F-actin stabilization on GA-amide induced F-actin depolymerization, invasion inhibition and apoptosis” value (F-actin) was “significantly reversed”.

With `CC(C)=CCC[C@]1(C)C=Cc2c(O)c3c(c(CC=C(C)C)c2O1)O[C@]12C(=C[C@@H]4C[C@H]1C(C)(C)O[C@@]2(C/C=C(/C)C(=O)O)C4=O)C3=O` [GAC, gambogic acid, reference compound] the “tumor volume versus control” value (subcutaneous glioma PDX; 2 mg/kg i.p. daily for 10 days) was “significantly decreased compared with those in the control group”.

For `Cn1nnc2c(C(N)=O)ncn2c1=O` [TMZ, temozolomide, reference compound], the “concentration in the tumor area versus the nontumor area” value [1] was “no discernible difference in its distribution between these regions”, the “body weight of mice” value (subcutaneous glioma PDX; [2]) was “significantly decreased” and the “tumor volume versus control” value (subcutaneous glioma PDX; [2]) was “significantly decreased compared with those in the control group”.

In the case of `COC(=O)[C@@]1(O)C[C@H]2O[C@]1(C)n1c3ccccc3c3c4c(c5c6ccccc6n2c5c31)C(=O)NC4` [K252a], the “rescue of the inhibitory effect of GA-amide on GSCs” value (GSC2 and U87MG-SLC cells) is reported as “neither the TrkA inhibitor GW441756 nor the Trk family inhibitor K252a[28] restored the inhibitory effect of GA-amide on GSCs”.
